Experimental data: patent publication US11788112B2, “L-2-hydroxyglutarate and stress induced metabolism” (Memorial Sloan-Kettering Cancer Center, priority 2014, dated 2023)

Columns and labels:
KDM4C = biological target: T1, KDM4C (Homo sapiens, UniProt Q9H3R0); conditions: prior reports (Chowdhury et al., 2011; Lu et al., 2012); cited from earlier work
T1 sequence (Q9H3R0 1-1056): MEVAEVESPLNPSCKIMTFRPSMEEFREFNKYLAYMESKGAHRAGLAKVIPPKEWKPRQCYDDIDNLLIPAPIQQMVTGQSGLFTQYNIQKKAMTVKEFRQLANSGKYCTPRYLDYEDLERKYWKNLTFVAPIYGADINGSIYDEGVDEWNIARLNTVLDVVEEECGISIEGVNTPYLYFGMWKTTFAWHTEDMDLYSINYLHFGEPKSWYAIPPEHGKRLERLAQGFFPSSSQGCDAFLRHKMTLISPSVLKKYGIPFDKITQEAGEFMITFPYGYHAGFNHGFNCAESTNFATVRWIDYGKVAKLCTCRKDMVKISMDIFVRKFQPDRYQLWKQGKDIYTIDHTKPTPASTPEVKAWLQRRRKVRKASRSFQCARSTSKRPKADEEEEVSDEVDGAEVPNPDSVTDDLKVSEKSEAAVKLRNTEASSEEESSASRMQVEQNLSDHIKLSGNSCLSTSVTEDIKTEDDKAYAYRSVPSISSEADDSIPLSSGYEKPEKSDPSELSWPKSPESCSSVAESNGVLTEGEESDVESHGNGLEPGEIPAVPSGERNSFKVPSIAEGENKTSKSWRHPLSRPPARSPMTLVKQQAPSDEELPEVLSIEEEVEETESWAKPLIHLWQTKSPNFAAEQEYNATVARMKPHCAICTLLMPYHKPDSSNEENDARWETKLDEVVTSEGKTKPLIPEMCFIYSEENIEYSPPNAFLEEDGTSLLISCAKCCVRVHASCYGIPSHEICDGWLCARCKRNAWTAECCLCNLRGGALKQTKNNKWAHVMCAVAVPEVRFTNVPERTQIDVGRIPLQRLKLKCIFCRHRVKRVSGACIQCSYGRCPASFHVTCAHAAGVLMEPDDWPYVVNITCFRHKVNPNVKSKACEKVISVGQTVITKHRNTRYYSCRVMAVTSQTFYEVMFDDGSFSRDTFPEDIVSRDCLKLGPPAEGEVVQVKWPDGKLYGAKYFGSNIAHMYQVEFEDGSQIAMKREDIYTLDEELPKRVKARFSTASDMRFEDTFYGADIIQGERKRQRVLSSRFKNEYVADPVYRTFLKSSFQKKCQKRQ

SF188 cells = test: Intracellular 2HG by GC-MS in SF188 cells supplemented with cell-permeable α-KG; format: cell-based, human; conditions: 48 hr, 5 mM dimethyl-α-KG vs vehicle (DMSO)
Procedure: FIG. 2 depicts quantified results of GC-MS histograms showing that hypoxia-induced L-2HG originates from glutamine-derived α-ketoglutarate. Panels in (A and B) are line-drawings showing the fraction of intracellular 2HG labeled by ^13C at the indicated time. Isotope tracing was performed in SF188 cells cultured in medium containing either [U-^13C]glucose or [U-^13C]glutamine. […] Panels in (C) are bar graphs showing normalized 2HG. SF188 cells were cultured for 48 hr in 21% or 0.5% O2 in the presence of vehicle (DMSO) or 5 mM dimethyl-α-KG. Total intracellular 2HG was assessed by GC-MS. […] Representative data from 1 of 3 independent experiments are shown. Panels in (D and E) are GC-MS histograms showing 2HG ions in different conditions. SF188 cells were cultured as in (C), then chiral derivatization of metabolites was performed to allow separation of 2HG enantiomers by GC-MS. Panels in (D) show an overlay of GC-MS histograms for 2HG on the same scale. […]
Metabolites were extracted with 1 mL ice-cold 80% methanol supplemented with 2 micromolar deuterated 2-hydroxyglutarate (D-2-hydroxyglutaric-2,3,3,4,4-d5 acid; deuterated-D-2HG) as an internal standard. […] Samples were analyzed using an Agilent 7890A GC coupled to Agilent 5975C mass selective detector. […] Ions used for quantification of metabolite levels were 2HG m/z 247 and deuterated-2HG m/z 252. […]

purified human KDM4C = biological target: T2, purified human KDM4C (Homo sapiens, UniProt Q9H3R0); test: In vitro histone demethylase assay (H3K9me3 by Western blot); format: biochemical; conditions: bulk histones, α-KG 1 mM, 37° C. for 4 hr, various concentrations
T2 construct: GST; purchased BPS Bioscience
T2 sequence (Q9H3R0 1-1056): T1 sequence (Q9H3R0 1-1056)

| Compound | inhibition of KDM4C (KDM4C) | increase in intracellular 2HG (SF188 cells; hypoxia (0.5% O2), confirmed to be L-2HG by chiral derivatization) [fold] | increase in intracellular 2HG (SF188 cells; normoxia (21% O2)) | inhibition of KDM4C demethylation of H3K9me3 (purified human KDM4C) |
| --- | --- | --- | --- | --- |
| D-2-hydroxyglutarate [D-2HG] | roughly comparable inhibition |  |  |  |
| COC(=O)CCC(=O)C(=O)OC [dimethyl-α-KG, dimethyl alpha-ketoglutarate] |  | ~100 | modest increase |  |
| O=C(O)CC[C@H](O)C(=O)O [L-2HG, L-2-hydroxyglutarate] | roughly comparable inhibition |  |  | sensitive to inhibition by L-2HG, in a dose dependent manner |
